What was measured:
[1] = test system: bacterial chemoreceptors of E. coli AW405 or RP 1078 (cheW); assay: immunofluorescence microscopy of chemoreceptor organization; type: cell-based, Escherichia coli; settings: E. coli cheW mutants, 5 mM, anti-Tsr labeling
Description: Fluorescence microscopy experiments were performed to visualize changes in chemotaxis receptor organization upon treatment with saccharide-carrying ligands. These experiments can determine directly whether or not multivalent ligands can influence chemoreceptor reorganization. It had been shown that wild-type E. coli localize chemoreceptors to their poles and that inactivation of the structural protein, CheW, results in a random distribution of chemoreceptors on the cell. The ability of ROMP-derived arrays to localize the chemoreceptors was examined using E. coli cheWmutants. Bacteria were treated with 1, 3, or 4, fixed, and labeled with an antibody to the bacterial chemoreceptors (anti-Tsr). […]
To confirm the ability of multivalent ligands to alter the organization of the chemoreceptors in the bacterial membrane E. coli were treated with compound 8, a galactose-bearing multivalent ligand having a fluorescent label (Scheme 1). When E. coli were treated with 8 or a fluorescein-labeled anti-Tsr antibody 14, the fluorescence patterns observed were similar. […]
E. coli AW405 or RP 1078 (cheW) were pretreated with buffer alone or with compounds 1, 3, 4, or 8 at 5 mM in a 10 μL total volume of chemotaxis buffer. […] Fluorescence microscopy was performed on a Zeiss Axioscope at 1000×using an oil immersion lens. […]

[2] = biological target: glucose/galactose-binding protein (GGBP) (Escherichia coli, UniProt P0AEE5); assay: in vitro binding assay with purified GGBP
glucose/galactose-binding protein (GGBP), sequence (P0AEE5 24-332 limits assumed): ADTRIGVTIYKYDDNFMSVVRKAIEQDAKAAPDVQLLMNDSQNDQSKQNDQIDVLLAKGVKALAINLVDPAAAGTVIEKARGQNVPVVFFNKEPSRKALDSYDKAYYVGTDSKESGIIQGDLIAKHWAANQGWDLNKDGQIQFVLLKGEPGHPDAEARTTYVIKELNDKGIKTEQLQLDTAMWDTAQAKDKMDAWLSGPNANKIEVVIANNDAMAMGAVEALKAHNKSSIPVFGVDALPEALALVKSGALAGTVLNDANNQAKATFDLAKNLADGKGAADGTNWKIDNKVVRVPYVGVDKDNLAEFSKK
Description: The molecular events leading to bacterial chemotaxis have been well studied, and the process has served as a general model for receptor-mediated responses. During chemotaxis in Escherichia coli, chemoattractants, such as sugars and amino acids, and chemorepellents are recognized by specific receptors at the bacterial plasma membrane. For these investigations of multivalent ligand activity, galactose was selected as a model chemoattractant. […] For galactose-mediated signaling, the saccharide must bind to the soluble periplasmic glucose/galactose-binding protein (GGBP), which, in turn, interacts with the galactose-sensing chemoreceptor, Trg. Galactose-GGBP binding to Trg initiates a signaling pathway that results in reversal of the direction of flagellar spin, allowing the bacteria to swim towards the nutrient.
Galactose-bearing ligands 1-4 of varying defined valencies were generated using ROMP methods (Scheme 1). The galactose residues in the multivalent ligands are tethered to the molecular scaffold (polymer backbone) via a short linker.

[3] = test system: E. coli AW405; assay: video microscopy motion analysis of bacteria; type: cell-based, Escherichia coli; settings: first 5-15 seconds after addition of attractant
Description: FIG. 2A: Results of video microscopy motion analysis experiments. Bacteria (Escherichia coli) were treated with buffer alone, galactose, or compound 1 or 3 (Scheme 1) at the indicated saccharide concentrations. The results represent the average from at least five independent experiments performed in triplicate. Error bars represent the deviation between per-second averages during the ten second interval.
Ligands functionalized with galactose such as monovalent ligand 1 and multivalent ligand 3, also serve as attractants in vivo. […] To observe the effects of synthetic ligands on tumbling frequency, E. coli were treated with galactose or galactose-bearing ligands, and bacterial motion was recorded and analyzed using the method of Sager et al.. The tumbling frequency was assessed by averaging the mean angular velocity of the paths obtained in the first 5-15 seconds after addition of attractant (FIG. 2A). […]
Partially permeabilized bacteria (25 μM EDTA for 3 min. at room temperature, then quench with 50 μM CaCl2) at an OD550 of 0.1 were placed under a cover slip supported by additional cover slips in the method of Sager et al.. […] The bacterial motion at 28° C. was recorded, and the paths were analyzed using the ExpertVision system. Paths derived from the first 5 to 15 seconds following the introduction of attractant were analyzed. […] Data were analyzed using the Q and Students tests.

## O=C(NCCOC1OC(CO)C(O)C(O)C1O)C1C[C@@H]2C=CC1C2 (stereo partly drawn) [Compound 1]
[1]
  effect on chemoreceptor distribution: no effect on receptor distribution
[2]
  interaction with purified GGBP compared with galactose: at least as favorable as that of galactose
[3]
  mean angular velocity (tumbling frequency) after addition of attractant: produced similar effects to that of the free chemoattractant

Source: patent US20040248801A1, “Methods and reagents for regulation of cellular responses in biological systems” (priority 2000, published 2004)
